US9346761B2, “Arginine methyltransferase inhibitors and uses thereof” (Epizyme, Inc., priority 2013, dated 2016)

What follows are compounds tested against T1, Human CARM1 (PRMT4) (Homo sapiens, UniProt Q86X55) (assay: CARM1 biochemical assay (3H-SAM Flashplate, peptide substrate)).
T1 construct: Flag-CARM1-His was eluted with 200 ug/ml FLAG peptide in buffer A; made in house; host or cells: HEK 293F cells (BacMam virus, pFastBacMam)
T1 sequence (Q86X55 with tags, fused parts or gaps isoform Q86X55-1): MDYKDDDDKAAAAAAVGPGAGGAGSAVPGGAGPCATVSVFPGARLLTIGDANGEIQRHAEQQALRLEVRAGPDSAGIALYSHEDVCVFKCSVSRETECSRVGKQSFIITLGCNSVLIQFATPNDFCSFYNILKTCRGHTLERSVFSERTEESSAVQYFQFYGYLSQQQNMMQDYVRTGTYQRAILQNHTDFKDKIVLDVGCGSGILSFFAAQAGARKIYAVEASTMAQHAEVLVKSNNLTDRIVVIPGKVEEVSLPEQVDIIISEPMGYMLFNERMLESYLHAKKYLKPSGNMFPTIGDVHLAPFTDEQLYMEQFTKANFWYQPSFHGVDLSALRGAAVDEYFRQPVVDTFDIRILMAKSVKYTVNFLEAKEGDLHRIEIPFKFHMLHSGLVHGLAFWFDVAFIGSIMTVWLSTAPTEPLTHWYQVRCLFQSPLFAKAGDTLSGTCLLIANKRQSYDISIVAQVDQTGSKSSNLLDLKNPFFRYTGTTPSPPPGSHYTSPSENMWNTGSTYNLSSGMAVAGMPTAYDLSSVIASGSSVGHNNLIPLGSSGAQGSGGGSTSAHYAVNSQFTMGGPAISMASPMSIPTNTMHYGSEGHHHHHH
Source text: General Materials. S-adenosylmethionine (SAM), S-adenosylhomocysteine (SAH), bicine, Tween20, dimethylsulfoxide (DMSO), bovine skin gelatin (BSG), sodium butyrate and Tris(2-carboxyethyl)phosphine hydrochloride solution (TCEP) were purchased from Sigma-Aldrich at the highest level of purity possible. ^3H-SAM was purchase from American Radiolabeled Chemicals with a specific activity of 80 Ci/mmol. 384-well streptavidin Flashplates were purchased from PerkinElmer.
Substrates. Peptide representative of human histone H3 residues 16-30 was synthesized with an N-terminal linker-affinity tag motif and a C-terminal amide cap by 21st Century Biochemicals.
Protein Expression. Recombinant baculovirus were generated according to Bac-to-Bac kit instructions (Life Technologies). […] Infections were carried out at 37° C. for 48 hours, harvested by centrifugation, and stored at −80° C. for purification.
Protein Purification. […] Column was washed with 500 mM NaCl in buffer A and Flag-CARM1-His was eluted with 200 ug/ml FLAG peptide in buffer A. Pooled fractions were dialyzed in 20 mM Tris, 150 mM NaCl, 5% glycerol and 1 mM DTT, pH 7.8.
General Procedure for CARM1 Enzyme Assays on Peptide Substrates. The assays were all performed in a buffer consisting of 20 mM Bicine (pH=7.6), 1 mM TCEP, 0.005% BSG, and 0.002% Tween 20, prepared on the day of use. […] DMSO (1 ul) was added to Columns 11, 12, 23, 24, rows A-H for the maximum signal control and 1 ul of SAH, a known product and inhibitor of CARM1, was added to columns 11, 12, 23, 24, rows I-P for the minimum signal control. A cocktail (40 ul) containing the CARM1 enzyme was added by Multidrop Combi (Thermo-Fisher). The compounds were allowed to incubate with CARM1 for 30 min at room temperature, then a cocktail (10 ul) containing ^3H-SAM and peptide was added to initiate the reaction (final volume=51 ul). […] The assays were stopped by the addition of non-radiolabeled SAM (10 ul) to a final concentration of 300 uM, which dilutes the ^3H-SAM to a level where its incorporation into the peptide substrate is no longer detectable. 50 ul of the reaction in the 384-well polypropylene plate was then transferred to a 384-well Flashplate and the biotinylated peptides were allowed to bind to the streptavidin surface for at least 1 hour before being washed once with 0.1% Tween20 in a Biotek ELx405 plate washer. The plates were then read in a PerkinElmer TopCount plate reader to measure the quantity of ^3H-labeled peptide bound to the Flashplate surface, measured as disintegrations per minute (dpm) or alternatively, referred to as counts per minute (cpm).
Where dpm=disintegrations per minute, cmpd=signal in assay well, and min and max are the respective minimum and maximum signal controls.
Where top and bottom are the normally allowed to float, but may be fixed at 100 or 0 respectively in a 3-parameter fit. The Hill Coefficient normally allowed to float but may also be fixed at 1 in a 3-parameter fit. Y is the % inhibition and X is the compound concentration.

| SMILES | IC50 |
| --- | --- |
| CN(CCN)Cc1cn[nH]c1-c1ccc(F)cc1 [Compound 1] | 1.01 to 3 µM |
| CN(CCN)Cc1cnn(C)c1-c1ccc(F)cc1 [Compound 4] | 0.101 to 1 µM |
| CCN(CCNC)Cc1c[nH]nc1-c1ccc(F)cc1 [Compound 9] | 1.01 to 3 µM |
| CNCCN(C)Cc1cnn(C)c1-c1ccc(F)cc1 [Compound 10] | 1.01 to 3 µM |
| CNCCN(C)Cc1cn(CC2CCOCC2)nc1-c1ccc(F)cc1 [Compound 11] | > 10 µM |
| CNCCN(C)Cc1cnn(CC2CCOCC2)c1-c1ccc(F)cc1 [Compound 12] | 3.01 to 10 µM |
| CNCCN(C)Cc1c[nH]nc1-c1cccc(N)c1 [Compound 32] | 1.01 to 3 µM |
| CNCCN(C)Cc1c[nH]nc1-c1ccc(CC#N)cc1 [Compound 34] | 1.01 to 3 µM |
| CNCCN(C)Cc1c[nH]nc1-c1ccccc1O [Compound 35] | > 10 µM |
| CNCCN(C)Cc1c[nH]nc1-c1ccccc1Oc1ccccc1 [Compound 36] | > 10 µM |
| CNCCN(C)Cc1c[nH]nc1-c1cccc(OC(F)(F)F)c1 [Compound 39] | 1.01 to 3 µM |
| CNCCN(C)Cc1c[nH]nc1-c1ccccc1NS(C)(=O)=O [Compound 41] | > 10 µM |
| CNCCN(C)Cc1c[nH]nc1-c1cccc(NC(C)=O)c1 [Compound 42] | 1.01 to 3 µM |
| CNCCN(C)Cc1c[nH]nc1-c1cccc(C(C)=O)c1 [Compound 44] | 1.01 to 3 µM |
| CNCCN(C)Cc1c[nH]nc1-c1ccc(C(=O)c2ccccc2)cc1 [Compound 45] | < 0.1 µM |
| CNCCN(C)Cc1c[nH]nc1-c1ccccc1-c1ccccc1 [Compound 46] | > 10 µM |
| CNCCN(C)Cc1c[nH]nc1-c1ccc(-c2ccccc2)cc1 [Compound 47] | < 0.1 µM |
| CNCCN(C)Cc1c[nH]nc1-c1ccccc1F [Compound 48] | 3.01 to 10 µM |
| CNCCN(C)Cc1c[nH]nc1-c1ccc(F)cc1F [Compound 49] | 3.01 to 10 µM |
| CNCCN(C)Cc1c[nH]nc1-c1cc(F)ccc1F [Compound 50] | 3.01 to 10 µM |
| CNCCN(C)Cc1c[nH]nc1-c1ccc(F)c(F)c1 [Compound 51] | 0.101 to 1 µM |
| CNCCN(C)Cc1c[nH]nc1-c1ccc(OC)c(F)c1 [Compound 52] | 1.01 to 3 µM |

| SMILES | IC50 |
| --- | --- |
| CNCCN(C)Cc1c[nH]nc1-c1cc(Cl)ccc1OC [Compound 53] | > 10 µM |
| CNCCN(C)Cc1c[nH]nc1-c1cccc(OC)c1OC [Compound 54] | > 10 µM |
| CNCCN(C)Cc1c[nH]nc1-c1ccc(OC)cc1OC [Compound 55] | 3.01 to 10 µM |
| CNCCN(C)Cc1c[nH]nc1-c1c(OC)cccc1OC [Compound 56] | > 10 µM |
| CNCCN(C)Cc1c[nH]nc1-c1cccc2ccccc12 [Compound 57] | 1.01 to 3 µM |
| CNCCN(C)Cc1c[nH]nc1-c1ccc2ccccc2c1 [Compound 58] | 0.101 to 1 µM |
| CNCCN(C)Cc1cn(CCC(O)CO)nc1-c1ccc(F)cc1 (stereo not shown) [Compound 59] | 3.01 to 10 µM |
| CCNCCN(C)Cc1c[nH]nc1-c1ccc(F)cc1 [Compound 60] | > 10 µM |
| COCCn1cc(CN(C)CCN(C)C)c(-c2ccc(F)cc2)n1 [Compound 61] | > 10 µM |
| CCN(CCN)Cc1c[nH]nc1-c1ccc(F)cc1 [Compound 62] | 0.101 to 1 µM |
| CCCN(CCN)Cc1c[nH]nc1-c1ccc(F)cc1 [Compound 63] | > 10 µM |
| COCCn1ncc(CN(C)CCN(C)C)c1-c1ccc(F)cc1 [Compound 64] | > 10 µM |
| CN(CCN)Cc1cnn(CCO)c1-c1ccc(F)cc1 [Compound 65] | 3.01 to 10 µM |
| CN(CCN)Cc1cn(CCO)nc1-c1ccc(F)cc1 [Compound 66] | 3.01 to 10 µM |
| CC(C)Oc1ccc(-c2n[nH]cc2CN(C)CCN)cc1 [Compound 67] | 0.101 to 1 µM |
| CN(CCN)Cc1c[nH]nc1-c1ccc(C#N)cc1 [Compound 68] | 0.101 to 1 µM |
| CN(CCN)Cc1n[nH]cc1-c1ccc(F)cc1 [Compound 69] | 3.01 to 10 µM |
| CN(CCN)Cc1c[nH]nc1-c1cccc(C#N)c1 [Compound 70] | 3.01 to 10 µM |
| CN(CCN)Cc1c[nH]nc1-c1cccc(F)c1 [Compound 71] | 0.101 to 1 µM |
| CN(CCN)Cc1c[nH]nc1-c1ccccc1F [Compound 72] | 3.01 to 10 µM |
| CN(CCN)Cc1c[nH]nc1-c1ccccc1 [Compound 73] | 1.01 to 3 µM |
| CN(CCN)Cc1c[nH]nc1-c1ccc(C(C)(C)C)cc1 [Compound 74] | 3.01 to 10 µM |

| SMILES | IC50 |
| --- | --- |
| CC(C)N(CCN)Cc1c[nH]nc1-c1ccc(F)cc1 [Compound 75] | > 10 µM |
| CN(CCN)Cc1cn(CC(O)CO)nc1-c1ccc(F)cc1 (stereo not shown) [Compound 76] | > 10 µM |
| CN(CCN)Cc1cn(C2COC2)nc1-c1ccc(F)cc1 [Compound 77] | 3.01 to 10 µM |
| NCCN(Cc1c[nH]nc1-c1ccc(F)cc1)C1CC1 [Compound 78] | > 10 µM |
| CN(CCN)Cc1cn(CC2COC2)nc1-c1ccc(F)cc1 [Compound 79] | > 10 µM |
| CN(CCN)Cc1cnn(CC2COC2)c1-c1ccc(F)cc1 [Compound 80] | > 10 µM |
| CN(CCN)Cc1cnn(C2COC2)c1-c1ccc(F)cc1 [Compound 81] | 1.01 to 3 µM |
| CN(CCN)Cc1c[nH]nc1-c1ccc(N2CCNCC2)cc1 [Compound 82] | 3.01 to 10 µM |
| CN(CCN)Cc1nn(C)cc1-c1ccc(C#N)cc1 [Compound 83] | 1.01 to 3 µM |
| CN(CCN)Cc1c(-c2ccc(C#N)cc2)cnn1C [Compound 84] | > 10 µM |
| CN(CCN)Cc1c[nH]nc1-c1ccc(C(F)(F)F)cc1C(F)(F)F [Compound 85] | > 10 µM |
| CN(CCN)Cc1c[nH]nc1-c1ccc(Cl)cc1Cl [Compound 86] | 3.01 to 10 µM |
| COc1ccc(-c2n[nH]cc2CN(C)CCN)c(OC)c1 [Compound 87] | 3.01 to 10 µM |
| Cc1ccc(-c2n[nH]cc2CN(C)CCN)c(C)c1 [Compound 88] | 3.01 to 10 µM |
| CN(CCN)Cc1c[nH]nc1-c1ccc(F)cc1Cl [Compound 89] | 3.01 to 10 µM |
| Cc1ccc(-c2n[nH]cc2CN(C)CCN)c(Cl)c1 [Compound 90] | 3.01 to 10 µM |
| Cc1ccc(Cl)c(-c2n[nH]cc2CN(C)CCN)c1 [Compound 91] | > 10 µM |
| CN(CCN)Cc1c[nH]nc1-c1ccc(C(F)(F)F)cc1 [Compound 92] | 0.101 to 1 µM |
| CN(CCN)Cc1c[nH]nc1-c1ccc(OC(F)(F)F)cc1 [Compound 93] | 1.01 to 3 µM |
| CN(CCN)Cc1c[nH]nc1-c1ccc(OC(F)F)cc1 [Compound 94] | 0.101 to 1 µM |
